Tests used:
Assay type in all cases: in vivo
[1] = system: barnyardgrass (Echinochloa crus-galli); test: Test B pre-/postemergence plant response
Outline: (§1)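 Steps: plant seeds in loam soil–sand mix; spray soil preemergence, and in parallel spray 2–10 cm one- to two-leaf plants postemergence; hold ~10 days in greenhouse; visually rate injury against untreated controls (0 = no effect, 100 = complete control).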

[2] = system: corn (Zea mays); test: Test B pre-/postemergence plant response
Outline: as §1

[3] = system: giant foxtail (Setaria faberii); test: Test B pre-/postemergence plant response
Outline: as §1

[4] = system: pigweed (Amaranthus retroflexus); test: Test B pre-/postemergence plant response
Outline: as §1

[5] = system: wheat (Triticum aestivum); test: Test B pre-/postemergence plant response
Outline: as §1

[6] = system: barnyardgrass (Echinochloa crus-galli); test: Test D pre-/postemergence plant response; conditions: Postemergence; for Barnyardgrass plant response rating: scale 0 to 100 (0 no effect, 100 complete control); for Plant response rating, Barnyardgrass: scale 0 to 100, 0 no effect, 100 complete control
Outline: (§2)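 Seeds were planted in a loam and sand blend and sprayed preemergence. In parallel, seedlings grown in peat moss/vermiculite medium were sprayed postemergence at 2 to 18 cm height. Both used a surfactant-containing non-phytotoxic solvent. Greenhouse ratings at 13 to 15 days used a 0–100 control scale.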

[7] = system: blackgrass (Alopecurus myosuroides); test: Test D pre-/postemergence plant response; conditions: Postemergence; for Blackgrass plant response rating: scale 0 to 100 (0 no effect, 100 complete control); for Plant response rating, Blackgrass: scale 0 to 100, 0 no effect, 100 complete control
Outline: as §2

[8] = system: giant foxtail (Setaria faberii); test: Test D pre-/postemergence plant response; conditions: Postemergence; for Foxtail, Giant plant response rating: scale 0 to 100 (0 no effect, 100 complete control); for Plant response rating, Foxtail, Giant: scale 0 to 100, 0 no effect, 100 complete control
Outline: as §2

[9] = system: johnsongrass (Sorghum halepense); test: Test D pre-/postemergence plant response; conditions: Postemergence; for Johnsongrass plant response rating: 31 g ai/ha, scale 0 to 100 (0 no effect, 100 complete control); for Plant response rating, Johnsongrass: scale 0 to 100, 0 no effect, 100 complete control
Outline: as §2

[10] = system: large (Lg) crabgrass (Digitaria sanguinalis); test: Test D pre-/postemergence plant response; conditions: Postemergence; for Crabgrass, Large plant response rating: scale 0 to 100 (0 no effect, 100 complete control); for Plant response rating, Crabgrass, Large: scale 0 to 100, 0 no effect, 100 complete control
Outline: as §2

[11] = system: morningglory (Ipomoea coccinea); test: Test D pre-/postemergence plant response; conditions: Postemergence; for Morningglory plant response rating: 31 g ai/ha, scale 0 to 100 (0 no effect, 100 complete control); for Plant response rating, Morningglory: scale 0 to 100, 0 no effect, 100 complete control
Outline: as §2

[12] = system: pigweed (Amaranthus retroflexus); test: Test D pre-/postemergence plant response; conditions: Postemergence; for Pigweed plant response rating: 31 g ai/ha, scale 0 to 100 (0 no effect, 100 complete control); for Plant response rating, Pigweed: scale 0 to 100, 0 no effect, 100 complete control
Outline: as §2

[13] = system: ragweed (common ragweed, Ambrosia elatior); test: Test D pre-/postemergence plant response; conditions: Postemergence; for Ragweed plant response rating: 31 g ai/ha, scale 0 to 100 (0 no effect, 100 complete control); for Plant response rating, Ragweed: scale 0 to 100, 0 no effect, 100 complete control
Outline: as §2

[14] = system: soybean (Glycine max); test: Test D pre-/postemergence plant response; conditions: Postemergence; for Soybean plant response rating: 31 g ai/ha, scale 0 to 100 (0 no effect, 100 complete control); for Plant response rating, Soybean: scale 0 to 100, 0 no effect, 100 complete control
Outline: as §2

[15] = system: waterhemp (common waterhemp, Amaranthus rudis); test: Test D pre-/postemergence plant response; conditions: Postemergence; for Waterhemp plant response rating: 31 g ai/ha, scale 0 to 100 (0 no effect, 100 complete control); for Plant response rating, Waterhemp: scale 0 to 100, 0 no effect, 100 complete control
Outline: as §2

[16] = system: yellow nutsedge (Cyperus esculentus); test: Test D pre-/postemergence plant response; conditions: Postemergence; for Nutsedge, Yellow plant response rating: 31 g ai/ha, scale 0 to 100 (0 no effect, 100 complete control); for Plant response rating, Nutsedge, Yellow: scale 0 to 100, 0 no effect, 100 complete control
Outline: as §2

[17] = 125 g ai/ha, postemergence, 0 to 100 scale, 0 no effect, 100 complete control
[18] = Postemergence, 500 g ai/ha, 0 to 100 scale (0 no effect, 100 complete control)
[19] = Preemergence, 125 g ai/ha, 0 to 100 scale (0 no effect, 100 complete control)
[20] = Preemergence, 500 g ai/ha, 0 to 100 scale where 0 is no effect and 100 is complete control

`Cc1cc(-c2ccccc2Oc2ncc(Cl)cn2)no1` [Compound 153] was tested, and the “Plant response rating, Barnyardgrass” value [1, 17] was 0, the “Plant response rating, Barnyardgrass” value [1, 18] was 70 and the “Barnyardgrass plant response rating” value [1, 19] was 0. For the same molecule, the “Plant response rating, Barnyardgrass” value [1, 20] was 100, the “Plant response rating, Corn” value [2, 17] was 30 and the “Plant response rating, Corn” value [2, 18] was 40. The “Plant response rating, Foxtail, Giant” value [3, 17] was 20, the “Plant response rating, Foxtail, Giant” value [3, 18] was 90 and the “Foxtail, Giant plant response rating” value [3, 19] was 30. The “Plant response rating, Foxtail, Giant” value [3, 20] was 100, the “Plant response rating, Pigweed” value [4, 17] was 100 and the “Plant response rating, Pigweed” value [4, 18] was 100. For the same molecule, the “Pigweed plant response rating” value [4, 19] was 100, the “Plant response rating, Pigweed” value [4, 20] was 100 and the “Plant response rating, Wheat” value [5, 17] was 30. The “Plant response rating, Wheat” value [5, 18] was 50, the “Barnyardgrass plant response rating” value ([6]; 16 g ai/ha) was 5 and the “Barnyardgrass plant response rating” value ([6]; 31 g ai/ha) was 5. For the same molecule, the “Plant response rating, Barnyardgrass” value ([6]; 62 g ai/ha) was 5, the “Plant response rating, Barnyardgrass” value ([6]; 125 g ai/ha) was 5 and the “Blackgrass plant response rating” value ([7]; 16 g ai/ha) was 0. For the same molecule, the “Blackgrass plant response rating” value ([7]; 31 g ai/ha) was 0, the “Plant response rating, Blackgrass” value ([7]; 62 g ai/ha) was 0 and the “Plant response rating, Blackgrass” value ([7]; 125 g ai/ha) was 0. For the same molecule, the “Foxtail, Giant plant response rating” value ([8]; 16 g ai/ha) was 0, the “Foxtail, Giant plant response rating” value ([8]; 31 g ai/ha) was 0 and the “Plant response rating, Foxtail, Giant” value ([8]; 62 g ai/ha) was 5. The “Plant response rating, Foxtail, Giant” value ([8]; 125 g ai/ha) was 5, the “Johnsongrass plant response rating” value [9] was 0 and the “Plant response rating, Johnsongrass” value ([9]; 62 g ai/ha) was 5. For the same molecule, the “Plant response rating, Johnsongrass” value ([9]; 125 g ai/ha) was 10, the “Crabgrass, Large plant response rating” value ([10]; 16 g ai/ha) was 0 and the “Crabgrass, Large plant response rating” value ([10]; 31 g ai/ha) was 5. For the same molecule, the “Plant response rating, Crabgrass, Large” value ([10]; 62 g ai/ha) was 5, the “Plant response rating, Crabgrass, Large” value ([10]; 125 g ai/ha) was 10 and the “Morningglory plant response rating” value [11] was 5. The “Plant response rating, Morningglory” value ([11]; 62 g ai/ha) was 15, the “Plant response rating, Morningglory” value ([11]; 125 g ai/ha) was 25 and the “Pigweed plant response rating” value [12] was 20. The “Plant response rating, Pigweed” value ([12]; 62 g ai/ha) was 40, the “Plant response rating, Pigweed” value ([12]; 125 g ai/ha) was 70 and the “Ragweed plant response rating” value [13] was 10. For the same molecule, the “Plant response rating, Ragweed” value ([13]; 62 g ai/ha) was 25, the “Plant response rating, Ragweed” value ([13]; 125 g ai/ha) was 55 and the “Soybean plant response rating” value [14] was 40. For the same molecule, the “Plant response rating, Soybean” value ([14]; 62 g ai/ha) was 70, the “Plant response rating, Soybean” value ([14]; 125 g ai/ha) was 90 and the “Waterhemp plant response rating” value [15] was 10. The “Plant response rating, Waterhemp” value ([15]; 62 g ai/ha) was 35, the “Plant response rating, Waterhemp” value ([15]; 125 g ai/ha) was 65 and the “Nutsedge, Yellow plant response rating” value [16] was 0. The “Plant response rating, Nutsedge, Yellow” value ([16]; 62 g ai/ha) was 5 and the “Plant response rating, Nutsedge, Yellow” value ([16]; 125 g ai/ha) was 5.

In the case of `FC(F)(F)c1cc(-c2c(I)cccc2Oc2ncc(Cl)cn2)no1` [Compound 156], the “Plant response rating, Barnyardgrass” value [1, 17] is reported as 0, the “Plant response rating, Barnyardgrass” value [1, 18] is reported as 20 and the “Barnyardgrass plant response rating” value [1, 19] is reported as 0. For the same molecule, the “Plant response rating, Barnyardgrass” value [1, 20] was 20, the “Plant response rating, Corn” value [2, 17] was 20 and the “Plant response rating, Corn” value [2, 18] was 40. The “Plant response rating, Foxtail, Giant” value [3, 17] was 20, the “Plant response rating, Foxtail, Giant” value [3, 18] was 90 and the “Foxtail, Giant plant response rating” value [3, 19] was 20. The “Plant response rating, Foxtail, Giant” value [3, 20] was 80, the “Plant response rating, Pigweed” value [4, 17] was 90 and the “Plant response rating, Pigweed” value [4, 18] was 100. For the same molecule, the “Pigweed plant response rating” value [4, 19] was 80, the “Plant response rating, Pigweed” value [4, 20] was 100 and the “Plant response rating, Wheat” value [5, 17] was 20. The “Plant response rating, Wheat” value [5, 18] was 30, the “Plant response rating (scale 0 to 100), Barnyardgrass” value ([6]; 8 g ai/ha) was 0 and the “Barnyardgrass plant response rating” value ([6]; 16 g ai/ha) was 0. For the same molecule, the “Barnyardgrass plant response rating” value ([6]; 31 g ai/ha) was 0, the “Plant response rating, Barnyardgrass” value ([6]; 62 g ai/ha) was 5 and the “Plant response rating (scale 0 to 100), Blackgrass” value ([7]; 8 g ai/ha) was 0. For the same molecule, the “Blackgrass plant response rating” value ([7]; 16 g ai/ha) was 0, the “Blackgrass plant response rating” value ([7]; 31 g ai/ha) was 5 and the “Plant response rating, Blackgrass” value ([7]; 62 g ai/ha) was 5. The “Plant response rating (scale 0 to 100), Foxtail, Giant” value ([8]; 8 g ai/ha) was 0, the “Foxtail, Giant plant response rating” value ([8]; 16 g ai/ha) was 5 and the “Foxtail, Giant plant response rating” value ([8]; 31 g ai/ha) was 10. For the same molecule, the “Plant response rating, Foxtail, Giant” value ([8]; 62 g ai/ha) was 35, the “Plant response rating (scale 0 to 100), Johnsongrass” value ([9]; 8 g ai/ha) was 0 and the “Johnsongrass plant response rating” value [9] was 5. The “Plant response rating, Johnsongrass” value ([9]; 62 g ai/ha) was 10, the “Plant response rating (scale 0 to 100), Crabgrass, Large” value ([10]; 8 g ai/ha) was 0 and the “Crabgrass, Large plant response rating” value ([10]; 16 g ai/ha) was 5. For the same molecule, the “Crabgrass, Large plant response rating” value ([10]; 31 g ai/ha) was 5, the “Plant response rating, Crabgrass, Large” value ([10]; 62 g ai/ha) was 10 and the “Plant response rating (scale 0 to 100), Morningglory” value ([11]; 8 g ai/ha) was 5. For the same molecule, the “Morningglory plant response rating” value [11] was 15, the “Plant response rating, Morningglory” value ([11]; 62 g ai/ha) was 65 and the “Plant response rating (scale 0 to 100), Pigweed” value ([12]; 8 g ai/ha) was 15. For the same molecule, the “Pigweed plant response rating” value [12] was 60, the “Plant response rating, Pigweed” value ([12]; 62 g ai/ha) was 75 and the “Plant response rating (scale 0 to 100), Ragweed” value ([13]; 8 g ai/ha) was 0. For the same molecule, the “Ragweed plant response rating” value [13] was 10, the “Plant response rating, Ragweed” value ([13]; 62 g ai/ha) was 15 and the “Plant response rating (scale 0 to 100), Soybean” value ([14]; 8 g ai/ha) was 5. For the same molecule, the “Soybean plant response rating” value [14] was 25, the “Plant response rating, Soybean” value ([14]; 62 g ai/ha) was 30 and the “Plant response rating (scale 0 to 100), Waterhemp” value ([15]; 8 g ai/ha) was 5. The “Waterhemp plant response rating” value [15] was 70, the “Plant response rating, Waterhemp” value ([15]; 62 g ai/ha) was 90 and the “Plant response rating (scale 0 to 100), Nutsedge, Yellow” value ([16]; 8 g ai/ha) was 0. The “Nutsedge, Yellow plant response rating” value [16] was 5 and the “Plant response rating, Nutsedge, Yellow” value ([16]; 62 g ai/ha) was 5.

From US10131652B2, “Pyrimidinyloxy benzene derivatives as herbicides” (E. I. DU PONT DE NEMOURS AND COMPANY, priority 2014, dated 2018)
